Test results published in the supplement of paper PMC10307832.

How the values were obtained:
Assay in all cases: relative viability (nuclei count vs DMSO), 5 days (fraction); higher = more cells survive
[1] = compound: NC(=O)c1ccc(N(C(N)=O)c2c(F)cccc2F)nc1-c1ccc(F)cc1F [VX-702] + CC1(C)CCC(c2ccc(Cl)cc2)=C(CN2CCN(c3ccc(C(=O)NS(=O)(=O)c4ccc(N[C@H](CCN5CCOCC5)CSc5ccccc5)c(S(=O)(=O)C(F)(F)F)c4)cc3)CC2)C1 [Navitoclax] (partner 0.5 µM)
Outline: (§1)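 Each reported value is a median over duplicate plates. It expresses relative viability: treated-well nuclei count divided by vehicle-well nuclei count. Lung cancer cell lines in 1536-well plates were dosed by pin tool a day after seeding, alone with one drug or with a fixed anchor-drug dose plus five library-drug doses (not always all listed) in √10 steps, and nuclei were counted after 5 days.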

[2] = compound: NC(=O)c1ccc(N(C(N)=O)c2c(F)cccc2F)nc1-c1ccc(F)cc1F [VX-702] + C[C@@H](Oc1cc(-c2cnn(C3CCNCC3)c2)cnc1N)c1c(Cl)ccc(F)c1Cl [Crizotinib] (partner 1 µM)
Outline: as §1

[3] = compound: CC(C)(C)c1nc(-c2cccc(NS(=O)(=O)c3c(F)cccc3F)c2F)c(-c2ccnc(N)n2)s1 [Dabrafenib] + Cc1cc(Nc2cc(N3CCN(C)CC3)nc(Sc3ccc(NC(=O)C4CC4)cc3)n2)n[nH]1 [Tozasertib] (partner 0.1 µM)
Outline: as §1

[4] = compound: NC(=O)c1ccc(N(C(N)=O)c2c(F)cccc2F)nc1-c1ccc(F)cc1F [VX-702] + Nc1nc2[nH]cc(CCc3ccc(C(=O)N[C@@H](CCC(=O)O)C(=O)O)cc3)c2c(=O)[nH]1 [Pemetrexed] (partner 0.2 µM)
Outline: as §1

Row | Cell Line | relative viability ([1]; first compound 0.02 µM) | relative viability ([1]; first compound 0.2 µM) | relative viability ([1]; first compound 0.6325 µM) | relative viability ([1]; first compound 2 µM) | relative viability ([2]; first compound 0.02 µM) | relative viability ([2]; first compound 0.2 µM) | relative viability ([2]; first compound 0.6325 µM) | relative viability ([2]; first compound 2 µM) | relative viability ([3]; first compound 0.009487 µM) | relative viability ([3]; first compound 0.03 µM) | relative viability ([3]; first compound 0.09487 µM) | relative viability ([3]; first compound 0.3 µM) | relative viability ([4]; first compound 0.02 µM) | relative viability ([4]; first compound 0.2 µM) | relative viability ([4]; first compound 0.6325 µM) | relative viability ([4]; first compound 2 µM) | relative viability ([3]; first compound 0.003 µM)
1 | NCI-H441 | 0.705 | 0.632 | 0.511 | 0.871 | 0.715 | 0.707 | 0.711 | 0.838 | 0.555 | 0.632 | 0.571 | 0.495 | 0.24 | 0.233 | 0.273 | 0.238 | –
2 | NCI-H460 | 1.15 | 1.03 | 1.08 | 1.37 | 0.835 | 0.951 | 0.958 | 1.05 | 0.482 | 0.436 | 0.374 | 0.375 | 0.0627 | 0.0509 | 0.055 | 0.057 | 0.0459
3 | NCI-H520 | 1 | 0.985 | 0.953 | 1.1 | 0.887 | 0.687 | 0.784 | 0.966 | 0.486 | – | 0.417 | 0.408 | 0.713 | 0.486 | 0.636 | 0.765 | 0.431
4 | NCI-H596 | 0.959 | 0.946 | 0.881 | 0.994 | 0.914 | 0.986 | 1.02 | 1.19 | 0.781 | 0.826 | 0.821 | 0.977 | 0.535 | 0.455 | 0.567 | 0.534 | –
5 | NCI-H647 | 1.1 | 1.02 | 1.02 | 1.23 | 1.14 | 1 | 1.12 | 1.05 | 0.292 | 0.27 | 0.298 | 0.434 | 0.174 | 0.172 | 0.133 | 0.144 | 0.388
6 | NCI-H838 | 1.25 | 1.13 | 1.19 | 1.36 | 0.779 | 0.755 | 0.807 | 0.976 | 0.34 | 0.239 | 0.255 | 0.258 | 0.234 | 0.24 | 0.254 | 0.236 | 0.29
7 | NCI-H1355 | 0.988 | 0.819 | 0.902 | 1.01 | 1.09 | 1.05 | 1.01 | 1.04 | 0.677 | 0.519 | 0.439 | 0.577 | 1.05 | 1.01 | 1.02 | 1.09 | –
8 | NCI-H1437 | 1.07 | 1.08 | 1.23 | 1.29 | 0.916 | 0.871 | 0.873 | 1.18 | 0.385 | 0.412 | 0.409 | 0.416 | 0.345 | 0.261 | 0.318 | 0.324 | 0.496
9 | NCI-H1650 | 1.1 | 1.16 | 1.43 | 1.31 | 1.19 | 1.05 | 1 | 1.24 | 0.563 | 0.408 | 0.419 | 0.384 | 0.325 | 0.34 | 0.384 | 0.403 | 0.524
